{"source": "patent US4018914A", "about": "“Parturition inducement” (Abbott Laboratories, priority 1975, dated 1977)", "test_system": "pregnant rats", "type": "in vivo, rat", "settings": "for Mean Number of Pups / Day of Parturition: pregnant rats; for Day of Parturition: number of animals at day", "procedure": "The test animals received 20 μ in two equal portions, of L-pGlu-L-His-L-Trp-L-Ser-L-Tyr-D-Leu-L-Leu-L-Arg-L-Pro-NH-ethyl as a 0.04 g/l solution in 0.9% aqueous sodium chloride containing 0.1% bovine serum albumin. In all instances, the subcutaneous injections were given on day 18 of gestation.\nIn a repetition of the procedure of Example 1, the same test was carried out except that the animals were injected on day 19 of gestation.", "key": {"[1]": {"settings": "same dose s.c. on day 19 of gestation"}}, "note": "Read-outs that look alike come from different tables or passages of the source."}
{"smiles": "CCNC(=O)[C@@H]1CCCN1C(=O)[C@H](CCCNC(=N)N)NC(=O)[C@H](CC(C)C)NC(=O)[C@@H](CC(C)C)NC(=O)[C@H](Cc1ccc(O)cc1)NC(=O)[C@H](CO)NC(=O)[C@H](Cc1c[nH]c2ccccc12)NC(=O)[C@H](Cc1c[nH]cn1)NC(=O)[C@@H]1CCC(=O)N1", "note": "[Test compound, L-pGlu-L-His-L-Trp-L-Ser-L-Tyr-D-Leu-L-Leu-L-Arg-L-Pro-NH-ethyl]", "values": [{"measurement": "Mean Number of Pups", "setting": "20 μ in two equal portions s.c. on day 18 of gestation", "value": 8.7}, {"measurement": "Day of Parturition", "setting": "20 μ in two equal portions s.c. on day 18 of gestation, normal pregnancy 21.5 days", "value": "1 at 21; 2 at 20"}, {"measurement": "Mean Number of Pups", "setting": "[1]", "value": 9.3}, {"measurement": "Day of Parturition", "setting": "[1]", "value": 3, "unit": "at 21"}, {"measurement": "Condition of pups delivered", "setting": "rat, in vivo", "value": "healthy and indistinguishable from the control animals' pups"}, {"measurement": "Parturition result at other dose levels", "setting": "rats, half and two times the dose level of example 1, compared with Table I", "value": "essentially the same result as shown in Table I"}]}
